Data as given in patent publication US9232785B2, “Method for reducing sunburn damage in plants” (BASF SE, priority 2009, dated 2016).

What was measured:
[1] = system: sunburn injury on winter barley; assay: Preventive action on winter barley against sunburn injury, field trial (Example 3); type: in vivo; conditions: Germany, applied at BBCH 53, evaluated 22 days after application, 0 = as untreated control, 100 = no sunburn symptoms, UV filter 2 L/ha (500 g ai/ha), Actives A & B 0.8 & 0.8 L/ha (240 & 297 g ai/ha)
Description: As active substance a mixture of active substances was used called “Actives A & B”, which was prepared by mixing Active A and Active B. Active A was a fungicidal suspension concentrate comprising 6 wt % epoxiconazol, 20.8 wt % boscalid, 11.2-12.6 wt % fatty alcohol alkoxylate, C8-alkyl glucoside, and phenolsulfonic acid-formaldehyde-polycondensate sodium salt (commercially available pesticide formulation from BASF SE as Champion®). Active B a fungicidal suspoemulsion comprising 20.6 wt % fenpropimorph, 11 wt % pyraclostrobin, 4.1 wt % epoxiconazol, 20.5 wt % solvent naphtha, 11 wt % fatty alcohol ethoxylate and 4.8 wt % phenolsulfonic acid-formaldehyde-polycondensate sodium salt (commercially available pesticide formulation from BASF SE as Diamant®). UV Filter A and UV filter B were prepared as described in examples 1 and 2.
The biological trial was conducted under field conditions in Germany. […] The level of sunburn injury was evaluated 22 days after application (% estimation of destroyed leaf area).
The sunburn injury assessments were converted into efficacies. […] The expected efficacies of active compound mixtures were determined using Colby's formula [R. S. Colby, “Calculating synergistic and antagonistic responses of herbicide combinations”, Weeds 15, 20-22 (1967)] and compared with the observed efficacies.

[2] = system: sunburn injury on barley cultivar Finita; assay: Preventive action on winter barley against sunburn injury, field trial, two timings (Example 5); type: in vivo; conditions: applied at BBCH 53, Actives A & B 0.8 l/ha, UV Filter 2.0 l/ha, Surround 10 kg/ha, % destroyed leaf area
Description: The biological trial was conducted under field conditions in Germany. The barley cultivar […] was planted and grown under standard conditions with adequate supply of water and nutrients. At BBCH 53 0.8 l/ha of Actives A & B and 2.0 l/ha UV Filter A or B were applied. For comparison, the Surround® (commercially available from Engelhard Corp., wettable powder comprising 95 wt % kaolin) was applied at a rate of 10 kg/ha. The level of sunburn injury was evaluated 15 and 22 days after application (% estimation of destroyed leaf area).

Row | SMILES | Efficacy [1] | % sunburn injury 15 days after application [2] | % sunburn injury 22 days after application [2]
1 | COCCOCCOCCOCCOCCOCCOCCOC(=O)C(C#N)=C(c1ccccc1)c1ccccc1 [UV Filter A, 2-Cyano-3,3-diphenyl-acrylsäure-[Pluriol A350E]-ester] | 4 | 38% | 96%
2 | COCCOCCOCCOCCOCCOCCOCCOC(=O)CCc1cc(-n2nc3ccccc3n2)c(O)c(C(C)(C)C)c1 [UV Filter B, 3-(3-Benzotriazol-2-yl-5-tert-butyl-4-hydroxyphenyl)-propiosäure-[Pluriol A350E]-ester] | 3 | 36% | 97%
